For series [1], the system named is polarized CD4+ T-regulatory cells. The series can be described thus: cytotoxicity in polarized CD4+ T-regulatory cells. In kind it is cell-based, murine. Particulars: 156 ng/mL to 5 ug/mL, compared to DMSO controls. Here is the method:
FIG. 2: Cytotoxicity of compounds from 156 ng/mL to 5 ug/mL concentration range in polarized CD4+ T-regulatory cells. Murine CD4+ T-cells were isolated and polarized in vitro to T-regulatory cells using 5 ng/mL IL-2, 2 μg/mL anti-IL-4, 2 μg/mL anti-IFNγ, and 1 ng/mL TGFβ. After 48 hours, the inhibitors were added to the cells.
We then synthesized all 17 compounds and validated their cytotoxicity to regulatory T cells. To this end, mouse CD4 T cells were polarized to FoxP3 Tregs for two days, followed by treatment of the cells with each of the compounds at the doses upto 5 ug/ml. […] In addition, the rest of the compounds had poor solubility in DMSO, and were not further tested.

Another series relates to LLC1 tumors in WT mice. The series can be described thus: LLC1 tumor model in WT mice. In kind it is in vivo. Here is the method: FIG. 5: Usp22 inhibitor administration enhances antitumor immunity. A, Structure of compound CS30 (Usp22i-S02). B, FOXP3 MFI in WT and 22KO of Treg cells after treatment with 20 μg/kg of Usp22i-S02 in vivo (n=3). C, Representative flow cytometry plot of FOXP3+CD25+MFI of CD4+ peripheral cells of mice treated with 20 μg/kg of Usp22i-S 02 relative to control (n=5). D, Graphical representation of Foxp3 MFI upon Usp22i-S02 administration (n=5). E, Tumor growth curve of LLC1 cells subcutaneously injected in the flank of WT mice with or without the addition of 20 mg/kg/time of the Usp22 inhibitor starting at day 15, in 100 μL of oil (n=4). F-G, Representative flow cytometry plot and graphical representation of % infiltration of CD4+ and CD8+ T cells within the tumor (n=4). H, Representative histogram plot and graphical representation of intratumoral Treg (itTreg) Foxp3 MFI (n=4). I, MFI of itTreg suppressive markers (n=3-4). J, Percent Foxp3+IFNg+itTreg cells in control and Usp22-S02 treated mice (n=3-4). B, D-E, G, H-I Two-way ANOVA with multiple comparisons between rows was performed to determine statistical significance. J, Unpaired two tailed T test was performed to determine significance. All data are presented as mean±stdev. NS, not significant. *P<0.05, **P<0.01, ***P<0.001, ****P<0.0001.
FIG. 7: Usp22i-S02 has little effect on naïve mice, yet enhances anti-tumor immunity in LLC1-challenged mice. A, Body weight of Usp22i-S02 treated mice verses DMSO treated controls over the course of treatment (n=4). A-F. Injections were twice a day for 3 consecutive days at 10 μg/kg (n=4). B, Percent of cell populations in naïve mice treated with Usp22i-S02 relative to DMSO control (n=3-4). C, Percent of KI-67+ cells in various compartments in naïve mice treated with Usp22i-S02 relative to DMSO control (n=3-4). D, Percent CD44^hiCD62L^lo in T cell populations gated on CD45+ cells in naïve mice treated with Usp22i-S02 relative to DMSO control (n=3). E, Percent Annexin+PI+ T cells gates on CD45+ cells in naïve mice treated with Usp22i-S02 relative to DMSO control (n=4). F-H, Organ toxicity panel (VetScan VS2 Comprehensive Diagnostic Rotor lot 1061AA2) of naïve mice treated with Usp22i-S02 relative to DMSO control (n=2-3). I, Growth curve of subcutaneously injected LLC1 in WT mice treated with Usp22i-S02 at 10 μg/kg (n=5-10). I-Q, Injections were twice a day for 5 consecutive days at 10 μg/kg. J, Weights of resected tumors at day 16 from I (n=10). K-L, Representative flow plot and graphical representation of infiltrating T cells gated on CD45+ cells (n=5). M-P, Characterization of intratumoral CD8+ T cells frome mice treated with Usp22i-S02 (n=3-5). Q, Percent of intratumoral Treg cells from mice treated with Usp22i-S02 verses DMSO control, gated on CD4+Foxp3+ from mice (n=5). A-E, I and L, Two-way ANOVA with Sidaks's multiple comparisons between rows relative to control was performed to determine statistical significance. F-H, J, and M-Q, Two-tailed unpaired t-test was performed to determine statistical significance. All data are presented as mean±stdev. NS, not significant. *P<0.05, **P<0.01, ***P<0.001, ****P<0.0001.
To determine the functionality of Usp22i-S02 as a potential therapeutic, we tested the inhibitor on established tumors. […] Further analysis of tumor infiltrating lymphocytes was done on mice treated immediately following tumor implantation (FIG. 7I).
LLC1 cells were transplanted into 6-to-8-week-old C57BL/6 male mice. Subcutaneous injections were performed in the right flank of mice in a final volume of 100 μL using […] per injection. The USP22i-S02 was injected intraperitoneally (i.p) at a concentration of 20 mg/kg/time, in 100 μL of oil, twice a day for 5 days beginning on the day of the LLC1 cells injection. Control animals received 100 μL of oil alone. Subcutaneous tumor diameters were measured daily with calipers until any tumor in the mouse cohort reached 2.5 cm in its largest diameter.

The next series deals with LLC1 cells. Briefly: LLC1 cell counts, viability and growth in vitro. In kind it is cell-based. Particulars: 24 hours various concentrations; 10 ug/ml for 7 days. Here is the method:
(§1) FIG. 8: Usp22i-S02 inhibits tumor growth in vitro and in vivo. A, In vitro counts of LLC1 after treatment with Usp22i-S02 under various concentrations for 24 hours (n=2). B, In vitro viability of LLC1 after treatment with Usp22i-S02 under various concentrations for 24 hours (n=2). C, In vitro relative growth of LLC1 cells treated with 10 ug/ml of Usp22i-S02 relative to DMSO treated control for 7 days via OD600 (n=4). D, Growth curve of 1 million subcutaneously injected LLC1 cells into RAG−/− mice treated for 3 days Usp22i-S02 relative to DMSO control injections at day 15 of tumor growth (n=4). C-D, Two-way ANOVA with Sidaks's multiple comparisons between rows relative to control was performed to determine statistical significance. All data are presented as mean±stdev. NS, not significant. *P<0.05, **P<0.01, ***P<0.001, ****P<0.0001.
(§2) As Usp22 is also an important oncogene, we were interested in the potential dual-therapeutic function of Usp22i-S02.

For series [2], the system named is LLC1 tumors in RAG−/− mice. Briefly: LLC1 tumor growth in RAG−/− mice. In kind it is in vivo. As to conditions: treated for 3 days at day 15 of tumor growth. Here is the method:
as §1, §2

Structures are written as SMILES.

For the compound `N#Cc1c2c(c(Nc3ccccc3)n3c1nc1ccccc13)CCCC2` [USP22i-S02, 11-anilino-7,8,9,10-tetrahydrobenzimidazo[1,2-b]isoquinoline-6-carbonitrile], in series [1], the “cytotoxicity to Tregs” value was “does not show severe cytotoxicity”. Further, the “tumor growth of established LLC1 tumors” value with LLC1 tumors in WT mice (WT mice, 20 mg/kg/time starting at day 15) was “striking tumor rejection”. Also, in the series with LLC1 tumors in WT mice (established LLC1 tumors), the “itTreg GITR and PD-1 levels” value is “lower levels of GITR and PD-1”; the “itTreg IFN-γ levels” value is on record as “significantly higher levels of IFN-γ”. Moreover, the “Teff cell tumor infiltration” value in the series on LLC1 tumors in WT mice (established LLC1 tumors, WT mice) is “significant increase in Teff cell tumor infiltration”. Moreover, the “intratumoral Foxp3+ Treg percentage” value in the series on LLC1 tumors in WT mice (established LLC1 tumors, not splenic) is recorded as “significantly decreased”. In addition, the “intratumoral CD8+ T cell phenotype” value in the series on LLC1 tumors in WT mice (treated immediately following tumor implantation) is “less exhausted phenotype”. In the series on LLC1 tumors in WT mice (treated immediately following tumor implantation (FIG. 7Q)), the “intratumoral Foxp3+ Treg percentage” value was “significantly decreased”. Further, the tumor burden entry in the series with LLC1 tumors in WT mice (treated immediately following tumor implantation, twice a day for 5 days at 10 μg/kg) is “decreased tumor burden”. The “LLC1 tumor cell counts, viability and growth in vitro” value with LLC1 cells is “decreased tumor cell counts, viability, and growth”. In addition, in series [2], the “tumor growth in Rag−/− mice with established tumors” value is “small but statistically significant decrease in tumor growth”.

For the origin of these results see patent publication US12624031B2, “Inhibitors of ubiquitin specific peptidase 22 (USP22) and uses thereof for treating diseases and disorders” (Northwestern University, priority 2022, dated 2026).
